Laboratory results from patent publication US20230112845A1, “COMPOSITIONS OF BERBERINE URSODE[…] METHODS THEREOF FOR TREATING FATTY LIVER DISEASE, DIABETES AND HYPERLIPIDEMIA” (SHENZHEN HIGHTIDE BIOPHARMACEUTICAL LTD., priority 2020, published 2023).

Tested on: patients with presumed NASH and type 2 diabetes
Assay: Phase 2 randomized placebo-controlled trial, 18 weeks: liver fat content (MRI-PDFF), glycemic control, liver enzymes, lipids, body weight, fibrosis markers
Type: in vivo, human
Conditions: for Absolute Change in LFC (%), Mean / Relative Change in LFC (%), Mean / Absolute Change in LFC (%), LS Mean / Relative Change in LFC (%), LS Mean: Efficacy Set; for Absolute Change in LFC (%), Mean: placebo −2.0; for Relative Change in LFC (%), Mean: placebo −8.3; for Absolute Change in LFC (%), LS Mean: placebo −1.8; for Relative Change in LFC (%), LS Mean: placebo −8.2; for Mean change in LDL-c (mg/dL), Mean / Mean change in HbA1c (%), Mean / Relative change in GGT (%), Mean / Mean change in TG (mg/dL), Mean / Mean change in GGT (U/L), Mean / Mean change in ALT (U/L), Mean / Relative change in ALT (%), Mean / Mean change in HbA1c (%), LS Mean / Mean change in LDL-c (mg/dL), LS Mean / Mean change in TG (mg/dL), LS Mean / Mean change in GGT (U/L), LS Mean / Mean change in ALT (U/L), LS Mean: Modified Efficacy Set; for Mean change in LDL-c (mg/dL), Mean: placebo 0; for Mean change in HbA1c (%), Mean / Mean change in HbA1c (%), LS Mean: placebo 0.1; for Relative change in GGT (%), Mean: placebo 5; for Mean change in TG (mg/dL), Mean: placebo 18; for Mean change in GGT (U/L), Mean / Mean change in ALT (U/L), LS Mean: placebo −2; for Mean change in ALT (U/L), Mean: placebo −3; for Relative change in ALT (%), Mean: placebo −6; for Mean change in LDL-c (mg/dL), LS Mean: placebo 1; for Mean change in TG (mg/dL), LS Mean: placebo 19; for Mean change in GGT (U/L), LS Mean: placebo −1; for Mean change in Body weight (kg), Mean / Mean change in Body weight (kg), LS Mean: Safety Set, placebo −1.1; for Proportion achieving ≥ 30% relative reduction in LFC (subjects/total): placebo 7/33; for Proportion achieving ≥ 5% Absolute Reduction in LFC (subjects/total): placebo 8/33; for Proportion achieving ≥ 30% relative reduction in LFC (percent): placebo 21%; for Proportion achieving ≥ 5% Absolute Reduction in LFC (percent): placebo 24%; for decrease in mean HbA1c level: placebo increase of 0.1%
Text: The aim of this study was to determine the effect of two different doses of BUDCA on liver fat content (LFC) in patients with diabetes and presumed NASH when administered for 18 weeks. This phase 2 clinical trial tested the effect of BUDCA in patients with fatty liver disease and diabetes. The group taking the higher dose of this new drug had significant reductions in the amount of fat in their liver as well as improvement in their diabetes.
A prospective, randomized, placebo-controlled trial of two doses of BUDCA administered orally was conducted in a cohort of 100 subjects with fatty liver disease and diabetes. Treatment was for 18 weeks and endpoints measured included reduction in liver fat content measured by […] proton density fat fraction, improvement in glycemic control, changes in liver-associated enzymes, safety and tolerability.
Patients with diabetes and presumed NASH were randomized into one of three treatment groups, as follows: 1) BUDCA 500 mg BID 2) 1,000 mg BID and 3) matching placebo. Presumed NASH was defined based largely on magnetic resonance imaging derived proton density fat fraction (MRI-PDFF) of 10% or more. Additional inclusion criteria further enriched the study population for having NASH by virtue of requiring corrected T1 (cT1) of more than 830 milliseconds and elevated serum aspartate aminotransferase (AST)≥20 units per liter (6). Subjects had to be overweight or obese with body mass index of 25 kg/m^2 or more.
Study subjects underwent an initial screening evaluation, including measurement of LFC by MRI-PDFF. Subjects were excluded if they had known liver disease other than fatty liver disease or a history of excessive alcohol consumption. Although liver biopsies were not done as a part of this study, subjects with clear evidence of cirrhosis were excluded, based upon a platelet count of less than 150,000/mm^3, serum albumin levels less than […] or a current or previous history of clinical hepatic decompensation.
Those who were deemed eligible were then randomized into one of the three treatment groups described above and underwent a further baseline evaluation at the time of randomization and initial dosing. Subjects were permitted to continue their current treatment regimen for diabetes provided they had been on a stable dose regimen for at least 90 days.
LFC was measured at baseline and after 18 weeks of therapy. In addition, changes in liver chemistry tests, measures of glycemic control and serum lipid levels were also assessed during and at the end of treatment.
Descriptive Statistics were used to summarize continuous data, and frequencies and percentages were used to summarize categorical data. The Safety Set consisted of all subjects who received at least one dose of study treatment. The Modified Efficacy Set is a subset of the Safety Set consisting of subjects that had at least one post-dose MRI-PDFF assessment. […] The primary endpoint was an absolute change from Baseline to Week 18 (or ET) in Liver Fat Content. Primary Endpoint summary measures were provided in both the Efficacy and Modified Efficacy sets, with the Efficacy Set prespecified as the primary analysis set. All other endpoints were prespecified to use the Modified Efficacy Set. Comparisons between active treatment groups relative to placebo were tested using Analysis of Covariance (ANCOVA) with treatment group as a fixed effect and baseline value of the parameters of interest as covariates. ANCOVA based LS Means and raw means have been reported. For statistical analysis of laboratory parameters (i.e. P-values), multiple imputation was used to take missing data into account. A two-sided alpha level of 0.05 without adjustment for multiple tests was used to indicate statistical significance. Analyses were performed using SAS System version 9.4.
Effects of treatment with BUDCA on AST to Platelet Ratio Index (APRI) and Fibrosis-4 (FIB-4) were also measured.

Compound: COc1ccc2cc3[n+](cc2c1OC)CCc1cc2c(cc1-3)OCO2.C[C@H](CCC(=O)[O-])[C@H]1CC[C@H]2[C@@H]3[C@@H](O)C[C@@H]4C[C@H](O)CC[C@]4(C)[C@H]3CC[C@]12C [BUDCA, berberine ursodeoxycholate]
- Absolute Change in LFC (%), Mean (500 mg BID, 18 weeks, N 30): −2.9%
- Relative Change in LFC (%), Mean (500 mg BID, 18 weeks, N 30): −15.1%
- Absolute Change in LFC (%), LS Mean (500 mg BID, 18 weeks, P 0.199): −3.2%
- Relative Change in LFC (%), LS Mean (500 mg BID, 18 weeks, P 0.196): −15.9%
- Mean change in LDL-c (mg/dL), Mean (500 mg BID, 18 weeks, N 27): 5 mg/dL
- Mean change in HbA1c (%), Mean (500 mg BID, 18 weeks, N 29): −0.3%
- Relative change in GGT (%), Mean (500 mg BID, 18 weeks, N 29): −23%
- Mean change in TG (mg/dL), Mean (500 mg BID, 18 weeks, N 29): -41 mg/dL
- Mean change in GGT (U/L), Mean (500 mg BID, 18 weeks, N 29): −19 U/L
- Mean change in ALT (U/L), Mean (500 mg BID, 18 weeks, N 29): −4 U/L
- Relative change in ALT (%), Mean (500 mg BID, 18 weeks, N 29): −6%
- Mean change in HbA1c (%), LS Mean (500 mg BID, 18 weeks, P 0.029): −0.4%
- Mean change in LDL-c (mg/dL), LS Mean (500 mg BID, 18 weeks, P 0.955): 1 mg/dL
- Mean change in TG (mg/dL), LS Mean (500 mg BID, 18 weeks, P 0.041): -36 mg/dL
- Mean change in GGT (U/L), LS Mean (500 mg BID, 18 weeks, P 0.005): −20 U/L
- Mean change in ALT (U/L), LS Mean (500 mg BID, 18 weeks, P 0.674): −5 U/L
- Mean change in Body weight (kg), Mean (500 mg BID, 18 weeks, N 29): -1.6 kg
- Mean change in Body weight (kg), LS Mean (500 mg BID, 18 weeks, P 0.554): -1.6 kg
- decrease in triglyceride level (500 mg BID, 18 weeks, P=0.04): 41 mg/dL
- Proportion achieving ≥ 30% relative reduction in LFC (subjects/total) (500 mg BID, 18 weeks): 6/31
- Proportion achieving ≥ 5% Absolute Reduction in LFC (subjects/total) (500 mg BID, 18 weeks): 10/31
- Proportion achieving ≥ 30% relative reduction in LFC (percent) (500 mg BID, 18 weeks): (19%)
- Proportion achieving ≥ 5% Absolute Reduction in LFC (percent) (500 mg BID, 18 weeks): (32%)
- decrease in mean HbA1c level (500 mg BID, 18 weeks): 0.3%
- Absolute Change in LFC (%), Mean (1,000 mg BID, 18 weeks, N 27): −4.8%
- Relative Change in LFC (%), Mean (1,000 mg BID, 18 weeks, N 27): −24.1%
- Absolute Change in LFC (%), LS Mean (1,000 mg BID, 18 weeks, P 0.011): −4.7%
- Relative Change in LFC (%), LS Mean (1,000 mg BID, 18 weeks, P 0.016): −23.3%
- Mean change in LDL-c (mg/dL), Mean (1,000 mg BID, 18 weeks, N 25): -16 mg/dL
- Mean change in HbA1c (%), Mean (1,000 mg BID, 18 weeks, N 26): −0.6%
- Relative change in GGT (%), Mean (1,000 mg BID, 18 weeks, N 26): −29%
- Mean change in TG (mg/dL), Mean (1,000 mg BID, 18 weeks, N 26): -24 mg/dL
- Mean change in GGT (U/L), Mean (1,000 mg BID, 18 weeks, N 26): −30 U/L
- Mean change in ALT (U/L), Mean (1,000 mg BID, 18 weeks, N 26): −19 U/L
- Relative change in ALT (%), Mean (1,000 mg BID, 18 weeks, N 26): −21%
- Mean change in HbA1c (%), LS Mean (1,000 mg BID, 18 weeks, P 0.005): −0.5%
- Mean change in LDL-c (mg/dL), LS Mean (1,000 mg BID, 18 weeks, P 0.072): -12 mg/dL
- Mean change in TG (mg/dL), LS Mean (1,000 mg BID, 18 weeks, P 0.120): -24 mg/dL
- Mean change in GGT (U/L), LS Mean (1,000 mg BID, 18 weeks, P <0.001): −25 U/L
- Mean change in ALT (U/L), LS Mean (1,000 mg BID, 18 weeks, P 0.007): −16 U/L
- Mean change in Body weight (kg), Mean (1,000 mg BID, 18 weeks, N 27): -3.5 kg
- Mean change in Body weight (kg), LS Mean (1,000 mg BID, 18 weeks, P 0.012): -3.5 kg
- average body weight loss (1,000 mg BID, 18 weeks, P=0.012): 3.5 kg
- absolute LFC decrease, average (1,000 mg BID, 18 weeks, placebo 2.0%, p=0.011): 4.8%
- Proportion achieving ≥ 30% relative reduction in LFC (subjects/total) (1,000 mg BID, 18 weeks): 10/30
- Proportion achieving ≥ 5% Absolute Reduction in LFC (subjects/total) (1,000 mg BID, 18 weeks): 12/30
- relative decrease in LFC (1,000 mg BID, 18 weeks, placebo 8.3%, p=0.016): 24.1%
- Proportion achieving ≥ 30% relative reduction in LFC (percent) (1,000 mg BID, 18 weeks): (33%)
- Proportion achieving ≥ 5% Absolute Reduction in LFC (percent) (1,000 mg BID, 18 weeks): (40%)
- decrease in mean HbA1c level (1,000 mg BID, 18 weeks): 0.6%
- proportion of subjects showing improvements in APRI to thresholds associated with less severe fibrosis, vs placebo (1,000 mg, 18 weeks): approximately 2 fold
- proportion of subjects showing improvements in FIB-4 to thresholds associated with less severe fibrosis, vs placebo (1000 mg, 18 weeks): approximately 4 fold
- reduction in APRI vs placebo (1,000 mg, after 18 weeks (FIG. 6)): approximately 3 fold
- reduction in FIB-4 vs placebo (1000 mg, after 18 weeks (FIG. 7)): approximately 3 fold
- percentage of subjects achieving ALT reductions vs placebo (18 weeks (FIG. 8)): greater percentage
- Pro-C3 vs placebo (18 weeks (FIG. 9)): No significant differences
- enhanced liver fibrosis (ELF) score vs placebo (18 weeks (FIG. 9)): No significant differences
- change in HOMA-IR (BUDCA therapy, 18 weeks): No significant changes
- change in level of HDL-c (BUDCA therapy, 18 weeks): no significant change
- change in level of blood glucose (BUDCA therapy, 18 weeks): No significant changes
- change in level of insulin (BUDCA therapy, 18 weeks): No significant changes
- average decrease in level of LDL-c (high dose group (1,000 mg BID), 18 weeks, P=0.072): 16 mg/dL
